The source of these data is US9802937B2, “Substituted pyrazolo{4,3-D}pyrimidines as kinase inhibitors” (ORIGENIS GMBH, priority 2011, dated 2017).

pKi: −log10 of the molar value.

The assay concerns the target T1, SYK kinase (Homo sapiens, UniProt P43405).
T1 construct: purchased Invitrogen, Carlsbad
Briefly: SYK Assay (OMNIA KINASE ASSAY, SOX peptide fluorescence). Format: biochemical. The following applies: apparent Ki calculated from the IC50 using the Cheng-Prusoff equation; 1 mM ATP, 30° C.; read-out: SYK Activities: Ki. The procedure:
In the assay OMNIA® KINASE ASSAY by Invitrogen Corporation (Carlsbad) the effect of invention of a compound on the phosphorylation is determined by measurement of fluorescence intensity of a chelation-enhanced fluorophore called SOX. Upon phosphorylation of the peptide by the kinase of interest, Mg2+ is chelated to form a bridge between the SOX moiety and the phosphate group that is transferred to the specific tyrosine on the peptide. The fluorescence intensity is directly proportional to the amount of peptide phosphorylation.
To the wells of an 384 well small volume plate (Greiner, Frickenhausen) are added (i) the compound under test in 5% DMSO/distilled water (2 μl), (ii) 16 μl of the master mix containing ATP, DTT, Kinase Reaction Buffer, Omina Peptide Substrate Tyr 7 resulting in a final concentration of 1 mM ATP, 0.2 mM DTT and 10 μM Peptide Substrate.
The Master Mix and the assay plate was incubated to reaction temperature before the measurement (30° C.). The reaction was started with addition of (iii) 2 μl 4 μg/ml SYK kinase (Invitrogen, Carlsbad). During measurement fluorescence intensitiy readings were collected using a TECAN M1000 at a wavelength of λex 360/λem 485 nm every 30 s for 30 minutes. The reaction velocity was plotted versus the inhibitor concentration to determine the […] using XLFit 5.0 (IDBS, Guildford) to fit to a sigmoidal dose response curve, and the apparent Ki values were calculated from the IC50 using the Cheng-Prusoff equation (Cheng, Y.; Prusoff, W. H. Biochem. Pharmacol. 22, 3099-3108, 1973).
As usually defined, the pKi is the Ki on a negative log10 scale, so that one unit is a factor of ten. Turning to `CN1CCC(CNc2nc(C(=O)c3ccccc3)nc3cn[nH]c23)CC1` [Example #151, (7-(((1-methylpiperidin-4-yl)methyl)amino)-1H-pyrazolo[4,3-d]pyrimidin-5-yl)(phenyl)methanone], the pKi was > 8.00.
Under `Cc1nc2cc(Nc3nc(-c4cnc5cc[nH]c5c4)nc4cn[nH]c34)ccc2[nH]1` [Example #259, N-(2-methyl-1H-benzo[d]imidazol-5-yl)-5-(1H-pyrrolo[3,2-b]pyridin-6-yl)-1H-pyrazolo[4,3-d]pyrimidin-7-amine] stands 6.00 to 7.00; under `CC(=O)N1CCN(c2ccc(Nc3nc(-c4cccc(-c5nn[nH]n5)c4)nc4cn[nH]c34)cc2)CC1` [Example #192, 1-(4-(4-((5-(3-(2H-tetrazol-5-yl)phenyl)-1H-pyrazolo[4,3-d]pyrimidin-7-yl)amino)phenyl)piperazin-1-yl)ethan-1-one], > 8.00; under `CN(C)CCCOc1cccc(-c2nc(Nc3ccc(N4CCN(C)CC4)cc3)c3[nH]ncc3n2)c1` [Example #181, 5-(3-(3-(dimethylamino)propoxy)phenyl)-N-(4-(4-methylpiperazin-1-yl)phenyl)-1H-pyrazolo[4,3-d]pyrimidin-7-amine], 7.00 to 8.00.
Under `CC(=O)N1CCN(c2ccc(Nc3nc(-c4cnc5cc[nH]c5c4)nc4cn[nH]c34)cc2)CC1` [Example #256, 1-(4-(4-((5-(1H-pyrrolo[3,2-b]pyridin-6-yl)-1H-pyrazolo[4,3-d]pyrimidin-7-yl)amino)phenyl)piperazin-1-yl)ethan-1-one] stands > 8.00; under `COc1ccc(Nc2nc(-c3cccc(S(C)(=O)=O)c3)nc3cn[nH]c23)cc1OC` [Example #249, N-(3,4-dimethoxyphenyl)-5-(3-(methylsulfonyl)phenyl)-1H-pyrazolo[4,3-d]pyrimidin-7-amine], 7.00 to 8.00.
`COC(=O)c1cccc(-c2nc(Nc3ccc4c(c3)NC(=O)CO4)c3[nH]ncc3n2)c1` [Example #211, methyl 3-(7-((3-oxo-3,4-dihydro-2H-benzo[b][1,4]oxazin-6-yl)amino)-1H-pyrazolo[4,3-d]pyrimidin-5-yl)benzoate]: the negative-log Ki (pKi) is 7.00 to 8.00.
The figure for `c1ccc(-c2nc(Nc3cc[nH]n3)c3[nH]ncc3n2)cc1` [Example #38, 5-phenyl-N-(1H-pyrazol-3-yl)-1H-pyrazolo[4,3-d]pyrimidin-7-amine] is 7.00 to 8.00.
Take `Cc1nc2cc(Nc3nc(-c4cccs4)nc4cn[nH]c34)ccc2[nH]1` [Example #245, N-(2-methyl-1H-benzo[d]imidazol-5-yl)-5-(thiophen-2-yl)-1H-pyrazolo[4,3-d]pyrimidin-7-amine]: the pKi is > 8.00.
Under `CC(=O)N1CCN(c2ccc(Nc3nc(-c4cccc(S(C)(=O)=O)c4)nc4cn[nH]c34)cc2)CC1` [Example #246, 1-(4-(4-((5-(3-(methylsulfonyl)phenyl)-1H-pyrazolo[4,3-d]pyrimidin-7-yl)amino)phenyl)piperazin-1-yl)ethan-1-one] stands > 8.00; under `c1cncc(-c2cccc(-c3nc(Nc4ccc(N5CCOCC5)cc4)c4[nH]ncc4n3)c2)c1` [Example #102, N-(4-morpholinophenyl)-5-(3-(pyridin-3-yl)phenyl)-1H-pyrazolo[4,3-d]pyrimidin-7-amine], 7.00 to 8.00.
Under `FS(F)(F)(F)(F)c1cccc(-c2nc(Nc3ccc(N4CCOCC4)cc3)c3[nH]ncc3n2)c1` [Example #220, 5-(3-(pentafluorosulfanyl)phenyl)-N-(4-morpholinophenyl)-1H-pyrazolo[4,3-d]pyrimidin-7-amine] stands 7.00 to 8.00.
Under `c1cc(-c2nc(Nc3ccc(N4CCOCC4)cc3)c3[nH]ncc3n2)ccn1` [Example #19, N-(4-morpholinophenyl)-5-(pyridin-4-yl)-1H-pyrazolo[4,3-d]pyrimidin-7-amine] stands 7.00 to 8.00; under `CN(C)c1ccc(Nc2nc(-c3ccc(N4CCCC4)nc3)nc3cn[nH]c23)cc1` [Example #31, N1,N1-dimethyl-N4-(5-(6-(pyrrolidin-1-yl)pyridin-3-yl)-1H-pyrazolo[4,3-d]pyrimidin-7-yl)benzene-1,4-diamine], > 8.00.
For the compound `CS(=O)(=O)c1ccccc1Nc1nc(-c2cccs2)nc2cn[nH]c12` [Example #291, N-(2-(methylsulfonyl)phenyl)-5-(thiophen-2-yl)-1H-pyrazolo[4,3-d]pyrimidin-7-amine], the pKi was 7.00 to 8.00.
Take `c1csc(-c2nc(Nc3ccc(-n4nccn4)cc3)c3[nH]ncc3n2)c1` [Example #263, N-(4-(2H-1,2,3-triazol-2-yl)phenyl)-5-(thiophen-2-yl)-1H-pyrazolo[4,3-d]pyrimidin-7-amine]: the pKi was 6.00 to 7.00.
Under `CN1CCC(c2nc(Nc3ccc(N4CCN(C)CC4)cc3)c3[nH]ncc3n2)CC1` [Example #53, N-(4-(4-methylpiperazin-1-yl)phenyl)-5-(1-methylpiperidin-4-yl)-1H-pyrazolo[4,3-d]pyrimidin-7-amine] stands 7.00 to 8.00.
Under `CCN1CCN(c2ccc(Nc3nc(-c4cc(OC)ccc4OC)nc4cn[nH]c34)cc2)CC1` [Example #122, 5-(2,5-dimethoxyphenyl)-N-(4-(4-ethylpiperazin-1-yl)phenyl)-1H-pyrazolo[4,3-d]pyrimidin-7-amine] stands 7.00 to 8.00; under `CN1CCC(c2nc(Nc3cc[nH]n3)c3[nH]ncc3n2)CC1` [Example #55, 5-(1-methylpiperidin-4-yl)-N-(1H-pyrazol-3-yl)-1H-pyrazolo[4,3-d]pyrimidin-7-amine], 6.00 to 7.00; under `CN1CCN(c2ccc(Nc3nc(-c4cccc(OCC(=O)O)c4)nc4cn[nH]c34)cc2)CC1` [Example #174, 2-(3-(7-((4-(4-methylpiperazin-1-yl)phenyl)amino)-1H-pyrazolo[4,3-d]pyrimidin-5-yl)phenoxy)acetic acid], 6.00 to 7.00.
Consider `CC(C)(C#N)c1ccc(Nc2nc(-c3cccs3)nc3cn[nH]c23)cc1` [Example #167, 2-methyl-2-(4-((5-(thiophen-2-yl)-1H-pyrazolo[4,3-d]pyrimidin-7-yl)amino)phenyl)propanenitrile], for which the pKi is 7.00 to 8.00.
The figure for `O=C(O)c1ccc(-c2nc(Nc3ccc(N4CCOCC4)cc3)c3[nH]ncc3n2)cc1` [Example #243, 4-(7-((4-morpholinophenyl)amino)-1H-pyrazolo[4,3-d]pyrimidin-5-yl)benzoic acid] is > 8.00.
Under `COc1ccccc1-c1nc(Nc2cc(C3CC3)[nH]n2)c2[nH]ncc2n1` [Example #113, N-(5-cyclopropyl-1H-pyrazol-3-yl)-5-(2-methoxyphenyl)-1H-pyrazolo[4,3-d]pyrimidin-7-amine] stands 6.00 to 7.00; under `COC(=O)c1ccc(-c2nc(Nc3ccc(N4CCOCC4)cc3)c3[nH]ncc3n2)cc1` [Example #242, methyl 4-(7-((4-morpholinophenyl)amino)-1H-pyrazolo[4,3-d]pyrimidin-5-yl)benzoate], 7.00 to 8.00; under `COc1ccc(Nc2nc(-c3cccc(OC(F)(F)F)c3)nc3cn[nH]c23)cc1OC` [Example #226, N-(3,4-dimethoxyphenyl)-5-(3-(trifluoromethoxy)phenyl)-1H-pyrazolo[4,3-d]pyrimidin-7-amine], 7.00 to 8.00.
The figure for `COc1ccc(Nc2nc(-c3ccc(F)cc3)nc3cn[nH]c23)cc1OC` [Example #270, N-(3,4-dimethoxyphenyl)-5-(4-fluorophenyl)-1H-pyrazolo[4,3-d]pyrimidin-7-amine] is 7.00 to 8.00; for `COc1ccc(Nc2nc(-c3ccc(C(=O)O)cc3)nc3cn[nH]c23)cc1OC` [Example #244, 4-(7-((3,4-dimethoxyphenyl)amino)-1H-pyrazolo[4,3-d]pyrimidin-5-yl)benzoic acid] it is > 8.00; for `c1cncc(-c2cccc(-c3nc(Nc4ccc5cn[nH]c5c4)c4[nH]ncc4n3)c2)c1` [Example #104, N-(1H-indazol-6-yl)-5-(3-(pyridin-3-yl)phenyl)-1H-pyrazolo[4,3-d]pyrimidin-7-amine] it is 7.00 to 8.00.
As for `CN1CCN(c2ccc(Nc3nc(-c4cccc(S(F)(F)(F)(F)F)c4)nc4cn[nH]c34)cc2)CC1` [Example #221, N-(4-(4-methylpiperazin-1-yl)phenyl)-5-(3-(pentafluorosulfanyl)phenyl)-1H-pyrazolo[4,3-d]pyrimidin-7-amine], the pKi is 7.00 to 8.00.
As for `CC1(C)CNc2cc(Nc3nc(-c4ccsc4)nc4cn[nH]c34)ccc2S1` [Example #148, 2,2-dimethyl-N-(5-(thiophen-3-yl)-1H-pyrazolo[4,3-d]pyrimidin-7-yl)-3,4-dihydro-2H-benzo[b][1,4]thiazin-6-amine], the pKi was 6.00 to 7.00.
Consider `CSc1cccc(-c2nc(Nc3ccc(N4CCOCC4)cc3)c3[nH]ncc3n2)c1` [Example #224, 5-(3-(methylthio)phenyl)-N-(4-morpholinophenyl)-1H-pyrazolo[4,3-d]pyrimidin-7-amine], for which the pKi was 6.00 to 7.00.
The figure for `CSc1cccc(-c2nc(Nc3ccc4c(c3)NC(=O)CC4)c3[nH]ncc3n2)c1` [Example #236, 7-((5-(3-(methylthio)phenyl)-1H-pyrazolo[4,3-d]pyrimidin-7-yl)amino)-3,4-dihydroquinolin-2(1H)-one] is 7.00 to 8.00.
